Assay results: article PMC9501983, “Transport and Permeation Properties of Dapivirine: Understanding Potential Drug-Drug Interactions” (Pharmaceutics, 2022)

Key:
[1] = molecular target: T1, P-gp (Homo sapiens, UniProt P08183); test: Bi-directional transport across MDCKII P-gp and WT cell monolayers; assay type: in vitro ADME
T1 construct: expressed in transfected cells; host or cells: MDCKII (Madin-Darby canine kidney) cells, provided by Dr. Philip E. Empey

[2] = DPV tissue permeability across excised human ectocervical tissue (in-line cell); assay type: in vitro ADME; settings: female, human; 182 µM DPV alone in vaginal fluid simulant pH 4.2, 360 min; read-out: Papp across human cervical tissue
Excerpt: Freshly excised human ectocervical tissue samples from 6 pre-menopausal women were obtained through the Pitt Biospecimen Core at the University of Pittsburgh under an IRB-approved protocol (IRB# PRO09110431). Tissue samples were immersed in ice-cold Dulbecco’s modified Eagle medium during transfer from the surgery site to the laboratory. Tissue samples were then processed as previously reported, where excess stromal tissue was removed using a scalpel, and the epithelium was isolated using a Stadie-Riggs tissue slicer. The isolated epithelium sections were then mounted onto the in-line cell apparatus (PermeGear, Cranford, NJ, USA), a flow-through type Franz cell, with the epithelial side facing the apical compartment. A small piece of tissue sample was fixed in 10% formalin as the pre-treatment control for histology evaluation.
Vaginal fluid simulant was used to prepare drug solutions. Vaginal fluid simulant was prepared using a reported formulation (3.51 g L^−1 sodium chloride, 1.40 g L^−1 potassium hydroxide, 0.22 g L^−1 calcium hydroxide, 0.018 g L^−1 bovine serum albumin, 2.00 g L^−1 lactic acid, 1.00 g L^−1 acetic acid, 0.16 g L^−1 glycerin, 0.4 g L^−1 urea, and 5.0 g L^−1 glucose) and adjusted to pH 4.2 with 1N hydrochloric acid. To evaluate the impact of MIC on DPV tissue permeability, 450 μL of a mixture containing 182 µM (60 μg g^−1) DPV and 63 mM (30 mg g^−1) MIC was added to the apical compartment and compared to 182 µM (60 μg g^−1) DPV alone. […] One half of the tissue sample was fixed in 10% formalin for subsequent histological evaluation, while the other half was used for drug quantification. To quantify drug tissue levels, each tissue sample was digested overnight in 2 mL Solvable held at 50 °C. […] Samples were then cooled to room temperature and 1.5 mL of each sample was used for quantification. To quantify ^3H-DPV and ^14C-mannitol, each vial of collected sample was mixed with 2 mL scintillation cocktail and analyzed on an LS6500 liquid scintillation counter. Papp was calculated using Equation (2) as described above.

[3] = test system: human cervical tissue; test: Histology (H&E) of human cervical tissue after permeability assay; settings: 6-h exposure, clinically relevant concentrations
Method: Gross morphology of tissue samples was evaluated using hematoxylin and eosin (H&E) staining. After fixation in formalin, tissue samples were dehydrated in alcohol, cleared in xylene, and embedded in paraffin wax. Five-micron sections of embedded tissue were used to perform H&E staining following manufacturer’s procedures (hematoxylin for 5 min, bluing reagent for 15 s, and eosin for 2 min) and mounted onto microscope slides using Cytoseal 60. Images were acquired using the AxioCam software, version 4.9.1 (Carl Zeiss, San Diego, CA, USA) paired with the microscope, Axioskop 40 (Carl Zeiss, San Diego, CA, USA).

[4] = test system: MRP1; set-up: method as in PMID 26102284; settings: DPV at 10 μM; cited from earlier work
[5] = test system: MRP4; set-up: method as in PMID 26102284; settings: DPV at 10 μM; cited from earlier work
[6] = test system: CYP1A1; set-up: method as in PMID 34959473; settings: cited from earlier work
[7] = molecular target: T2, BCRP (Homo sapiens, UniProt Q9UNQ0); test: Bi-directional transport across MDCKII BCRP and WT/EV cell monolayers
T2 sequence (Q9UNQ0 1-655): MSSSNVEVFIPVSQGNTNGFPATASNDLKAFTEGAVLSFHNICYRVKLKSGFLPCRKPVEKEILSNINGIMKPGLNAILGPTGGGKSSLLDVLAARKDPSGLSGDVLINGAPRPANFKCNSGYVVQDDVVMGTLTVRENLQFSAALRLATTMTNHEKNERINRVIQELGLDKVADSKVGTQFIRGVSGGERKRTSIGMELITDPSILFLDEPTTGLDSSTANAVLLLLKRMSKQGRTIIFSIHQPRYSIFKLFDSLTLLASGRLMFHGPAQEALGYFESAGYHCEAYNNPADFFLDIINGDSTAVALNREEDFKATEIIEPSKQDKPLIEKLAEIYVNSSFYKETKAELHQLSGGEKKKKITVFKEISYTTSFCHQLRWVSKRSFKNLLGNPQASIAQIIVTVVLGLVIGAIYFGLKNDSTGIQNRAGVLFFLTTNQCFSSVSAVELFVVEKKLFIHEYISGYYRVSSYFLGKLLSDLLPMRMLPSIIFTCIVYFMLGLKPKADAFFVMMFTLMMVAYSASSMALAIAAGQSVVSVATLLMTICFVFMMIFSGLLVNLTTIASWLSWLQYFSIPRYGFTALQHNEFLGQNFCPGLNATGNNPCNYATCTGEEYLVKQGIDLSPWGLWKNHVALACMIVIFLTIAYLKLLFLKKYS

T1 sequence (P08183 whole entry): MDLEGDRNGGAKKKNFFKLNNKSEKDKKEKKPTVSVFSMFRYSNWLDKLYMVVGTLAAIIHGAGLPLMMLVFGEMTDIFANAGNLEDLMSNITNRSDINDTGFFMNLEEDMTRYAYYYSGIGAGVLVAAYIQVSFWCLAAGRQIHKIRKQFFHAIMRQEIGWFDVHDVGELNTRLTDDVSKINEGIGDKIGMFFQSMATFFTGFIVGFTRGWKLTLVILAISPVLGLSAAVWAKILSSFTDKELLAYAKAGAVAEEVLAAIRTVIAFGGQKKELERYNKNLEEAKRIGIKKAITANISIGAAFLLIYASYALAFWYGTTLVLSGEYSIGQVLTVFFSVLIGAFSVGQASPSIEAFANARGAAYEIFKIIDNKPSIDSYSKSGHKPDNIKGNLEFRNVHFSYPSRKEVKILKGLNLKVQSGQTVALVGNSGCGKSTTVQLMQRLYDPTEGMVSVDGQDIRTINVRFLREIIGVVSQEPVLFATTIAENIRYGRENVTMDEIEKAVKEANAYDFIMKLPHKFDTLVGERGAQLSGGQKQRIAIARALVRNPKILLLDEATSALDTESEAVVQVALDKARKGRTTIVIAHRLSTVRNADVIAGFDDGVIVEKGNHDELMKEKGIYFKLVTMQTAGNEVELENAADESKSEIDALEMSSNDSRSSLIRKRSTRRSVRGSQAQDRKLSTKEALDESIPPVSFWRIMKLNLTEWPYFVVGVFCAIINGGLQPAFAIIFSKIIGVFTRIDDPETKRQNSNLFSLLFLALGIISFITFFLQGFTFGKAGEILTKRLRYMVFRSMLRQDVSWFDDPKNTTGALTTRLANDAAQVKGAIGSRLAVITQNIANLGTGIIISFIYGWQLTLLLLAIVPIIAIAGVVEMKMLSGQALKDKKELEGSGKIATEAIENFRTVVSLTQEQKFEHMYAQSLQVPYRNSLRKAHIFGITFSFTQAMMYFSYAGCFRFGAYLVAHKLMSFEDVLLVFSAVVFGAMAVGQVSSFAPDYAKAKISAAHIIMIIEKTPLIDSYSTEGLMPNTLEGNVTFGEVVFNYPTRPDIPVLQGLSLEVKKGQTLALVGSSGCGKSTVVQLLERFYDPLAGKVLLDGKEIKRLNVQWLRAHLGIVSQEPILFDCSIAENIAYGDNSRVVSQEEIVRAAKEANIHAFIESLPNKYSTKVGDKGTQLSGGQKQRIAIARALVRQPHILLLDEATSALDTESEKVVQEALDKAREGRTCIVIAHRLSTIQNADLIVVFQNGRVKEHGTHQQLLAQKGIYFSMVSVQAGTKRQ

DPV ER in MDCKII P-gp cells with verapamil, reduced to % of ER without ([1]; 0.5 μM DPV, 100 μM verapamil): 65%
Impact on Papp of digoxin across MDCKII P-gp monolayers (either direction) ([1]; 5 μM DPV, 1 μM digoxin): no significant impact
Substrate status for P-gp ([1]; cellular system): not a substrate
efflux ratio at 90 min, 0.5 μM ([1]; dog, MDCK-MDR1, pH 7.4, 0.5 μM DPV, read-out: Net flux ratio (ER MDCKII P-gp / ER MDCKII WT)): 1.31
Papp at 360 min, 182 µM [2]: 0.88 ± 0.53 ×10⁻⁶ cm/s
Gross morphology of human cervical epithelium after exposure [3]: did not alter the gross morphology
DPV ER in MDCKII BCRP cells with Ko143, reduced to % of ER without ([7]; 0.5 μM DPV, 1 μM Ko143): 85%
Impact on Papp of nitrofurantoin across MDCKII BCRP monolayers (either direction) ([7]; 5 μM DPV, 1 μM nitrofurantoin): no significant impact
Substrate status for BCRP ([7]; cellular system): not a substrate
efflux ratio at 90 min, 0.5 μM ([7]; dog, pH 7.4): 1.33
Structure (SMILES): Cc1cc(C)c(Nc2ccnc(Nc3ccc(C#N)cc3)n2)c(C)c1 [DPV, dapivirine]
Effect on MRP1 expression level [4]: upregulated
Effect on MRP4 expression level [5]: downregulating
Substrate of CYP1A1 [6]: substrate
